Measurements reported in patent US20130072506A1, “6,8-DISUBSTITUTED PURINE COMPOSITIONS” (priority 2011, published 2013).
Like-named read-outs stand apart in the source and are kept apart here.

Tests used:
[1] = tested on: T-lymphoblastic leukemia cell line CEM; test: In vitro cytotoxic activity (metabolisation of Calcein AM); assay type: cell-based, human; conditions: CEM cells, 72 hours incubation, called GI50, read-out: Cell line tested/IC50 (μmol/L) CEM
From the text: (§1) In vitro Cytotoxic Activity (Metabolisation of Calcein AM). Because toxic compounds negatively influence metabolic processes of cells, many standard cytotoxicity assays are based on measurement of metabolisation rate of various artificial substrates. Resulting product is then quantified, for example, by means of spectrometry. The assays can be easily modified for use in 96-well plates. For evaluation of cytotoxicity of the 6,8-disubstituted purines of this invention, a microtiter assay based on quantification of metabolisation of Calcein AM was used. The assay is widely used in drug screening programs and in chemosensitivity testing. In live cells, Calcein AM is enzymatically hydrolysed and accumulation of resulting calcein is manifested by green fluorescence.
(§2) The following human cell lines were used for routine screening of the compounds: normal diploid fibroblasts BJ, T-lymphoblastic leukemia cell line CEM, promyelocytic leukemia cell line HL-60, erytroid leukemia cell line K-562, breast carcinoma cell line MCF-7, osteosarcoma cell line HOS and melanoma cell line G-361. The cells were maintained in Nunc/Corning 80 cm^2 plastic tissue culture flasks and cultured in cell culture medium (DMEM with 5 g/l glucose, 2 mM glutamine, […] penicillin, 100 mmg/ml streptomycin, 10% fetal calf serum and sodium bicarbonate).
(§3) The cell suspensions were prepared and diluted according to the particular cell type and the expected target cell density (2.500-30.000 cells per well based on cell growth characteristics) and pipetted (80 μl) into 96-well plates. Inoculates were allowed a pre-incubation period of 24 hours at 37° C. and 5% CO2 for stabilization. Tested compound was added in total volume of […] of water at time zero. Usually, test compound was evaluated at six 3-fold dilutions. In routine testing, the highest concentration tested was 100 μM, but it could have been adjusted because of limited solubility of a compound. All drug concentrations were tested in triplicates.
(§4) Incubations of cells with the test compounds lasted for 72 hours at 37° C., in 5% CO2 atmosphere and 100% humidity. At the end of incubation period Calcein AM in PBS was added into final concentration of 1 μg/ml. After another 1 hour of incubation fluorescence (FD) was measured with the Labsystem FIA Reader Fluoroscan Ascent (UK). Growth inhibition (GI) was estimated using the following equitation: GI=(mean FDdrug exposed wells−mean FDblank)/(mean FDcontrol wells−mean FDblank)×100%. The GI50 value, the drug concentration causing 50% reduction of Calcein AM conversion, was calculated from the obtained dose response curves.

[2] = tested on: breast carcinoma cell line MCF-7; test: as above; assay type: cell-based, human; conditions: MCF7 cells, 72 hours incubation, called GI50, read-out: Cell line tested/IC50 (μmol/L) MCF7
From the text: as §1, §2, §3, §4

[3] = tested on: erytroid leukemia cell line K-562; test: as above; assay type: cell-based, human; conditions: 72 hours incubation, called GI50, read-out: Cell line tested/IC50 (μmol/L) K-562
From the text: as §1, §2, §3, §4

melanoma cell line G-361 = test: as above; assay type: cell-based, human; conditions: G-361 cells, 72 hours incubation, called GI50, read-out: Cell line tested/IC50 (μmol/L) G-361
From the text: as §1, §2, §3, §4

[4] = tested on: normal diploid fibroblasts BJ; test: as above; assay type: cell-based, human; conditions: BJ cells, 72 hours incubation, called GI50, read-out: Cell line tested/IC50 (μmol/L) BJ
From the text: as §1, §2, §3, §4

[5] = tested on: osteosarcoma cell line HOS; test: as above; assay type: cell-based, human; conditions: HOS cells, 72 hours incubation, called GI50, read-out: Cell line tested/IC50 (μmol/L) HOS
From the text: as §1, §2, §3, §4

[6] = tested on: Human diploid fibroblast BJ; test: In vitro cytotoxic activity (metabolisation of MTT); assay type: cell-based; conditions: 72 hours, BJ passage 18-22
Procedure: In vitro Cytotoxic Activity (metabolisation of Mtt). MTT ([…]) assay is a standard colorimetric assay for evaluation of cytotoxicity. Mitochondrial dehydrogenase activity converts yellow MTT into violet formazan which is measured by means of spectrometry.
Human diploid fibroblast BJ (passage 18-22) were seeded into 96-well plate (5.000 cells per well). After 6 hours cultivation medium (DMEM with 5 g/l glucose, 2 mM glutamine, 100 U/ml penicillin, 100 mmg/ml streptomycin, 10% fetal calf serum and sodium bicarbonate) was replaced with the cultivation medium containing test compounds in concentration range of 0-200 μM. Highest concentration was adjusted if the solubility of the compound was limiting. Every concentration was tested in pentaplicate. MTT was added to the cells after 72 hours incubation (final concentration 0.5 mg/ml) and incubation continued for another 3 hours. MTT was solubilised by DMSO and absorbance at 570 nm was measured. Growth inhibition (GI) was estimated using the following equitation: GI=(mean A drug exposed wells−mean Ablank/mean Acontrol wells−mean Ablank)×100%. The GI20 value, the drug concentration causing 20% decrease in mitochondrial dehydrogenase activity, was calculated from the obtained dose response curves.

[7] = Homo sapiens, K562, K-562 cells

CN(C)c1nc2ncnc(NCc3ccco3)c2[nH]1 [Compound 61, 8-Dimethylamino-6-furfurylaminopurine]
245 to 246 °C: melting point

Cc1cccc(Nc2ncnc3nc(N(C)C)[nH]c23)c1 [Compound 81]
> 50 µmol/L: IC50 [1] | IC50 [2] | IC50 ([3]; K-562 cells) | IC50 (melanoma cell line G-361) | IC50 [4] | IC50 [5]
>100 µM: GI20 [6]

CC(=CCNc1ncnc2nc(N)[nH]c12)CO [Compound 84]
> 50 µmol/L: IC50 [1] | IC50 [2] | IC50 ([3]; K-562 cells) | IC50 (melanoma cell line G-361) | IC50 [4] | IC50 [5]
>100 µM: GI20 [6]

C/C(=C\CNc1ncnc2nc(N)[nH]c12)CO [Compound 85, 6-(E)-(4-hydroxy-3-methylbut-2-en-1-ylamino)-8-aminopurine]
>100 µM: GI20 [6]
> 50 µmol/L: IC50 ([1]; Homo sapiens, CCRF-CEM) | IC50 ([2]; Homo sapiens) | IC50 [3, 7] | IC50 (melanoma cell line G-361; Homo sapiens) | IC50 ([4]; Homo sapiens) | IC50 ([5]; Homo sapiens)

CC(CO)CCNc1ncnc2nc(N)[nH]c12 (centres unmarked) [Compound 86, 6-(4-hydroxy-3-methylbutylamino)-8-aminopurine]
>100 µM: GI20 [6]
> 50 µmol/L: IC50 ([1]; Homo sapiens, CCRF-CEM) | IC50 ([2]; Homo sapiens) | IC50 [3, 7] | IC50 (melanoma cell line G-361; Homo sapiens) | IC50 ([4]; Homo sapiens) | IC50 ([5]; Homo sapiens)

Nc1nc2ncnc(NCc3ccccc3F)c2[nH]1 [Compound 88]
> 50 µmol/L: IC50 [1] | IC50 [2] | IC50 ([3]; K-562 cells) | IC50 (melanoma cell line G-361) | IC50 [4] | IC50 [5]
>100 µM: GI20 [6]

Nc1nc2ncnc(NCc3cccc(F)c3)c2[nH]1 [Compound 89]
> 50 µmol/L: IC50 [1] | IC50 [2] | IC50 ([3]; K-562 cells) | IC50 (melanoma cell line G-361) | IC50 [4] | IC50 [5]
>100 µM: GI20 [6]

Nc1nc2ncnc(NCc3ccc(F)cc3)c2[nH]1 [Compound 90]
> 50 µmol/L: IC50 [1] | IC50 [2] | IC50 ([3]; K-562 cells) | IC50 (melanoma cell line G-361) | IC50 [4] | IC50 [5]
>100 µM: GI20 [6]

Nc1nc2ncnc(NCc3cccc(Cl)c3)c2[nH]1 [Compound 91]
> 50 µmol/L: IC50 [1] | IC50 [2] | IC50 ([3]; K-562 cells) | IC50 (melanoma cell line G-361) | IC50 [4] | IC50 [5]
>100 µM: GI20 [6]

Nc1nc2ncnc(NCc3ccc(Cl)cc3)c2[nH]1 [Compound 92]
>100 µM: GI20 [6]
> 50 µmol/L: IC50 [1] | IC50 [2] | IC50 ([3]; K-562 cells) | IC50 (melanoma cell line G-361) | IC50 [4] | IC50 [5]

COc1ccccc1CNc1ncnc2nc(N)[nH]c12 [Compound 97]
> 50 µmol/L: IC50 [1] | IC50 [2] | IC50 ([3]; K-562 cells) | IC50 (melanoma cell line G-361) | IC50 [4] | IC50 [5]
>100 µM: GI20 [6]

COc1cccc(CNc2ncnc3nc(N)[nH]c23)c1 [Compound 98]
> 50 µmol/L: IC50 [1] | IC50 [2] | IC50 ([3]; K-562 cells) | IC50 (melanoma cell line G-361) | IC50 [4] | IC50 [5]
>100 µM: GI20 [6]

COc1ccc(CNc2ncnc3nc(N)[nH]c23)cc1 [Compound 99]
> 50 µmol/L: IC50 [1] | IC50 [2] | IC50 ([3]; K-562 cells) | IC50 (melanoma cell line G-361) | IC50 [4] | IC50 [5]
>100 µM: GI20 [6]

Nc1nc2ncnc(NCc3cccc([N+](=O)[O-])c3)c2[nH]1 [Compound 100]
>100 µM: GI20 [6]
> 50 µmol/L: IC50 [1] | IC50 [2] | IC50 ([3]; K-562 cells) | IC50 (melanoma cell line G-361) | IC50 [4] | IC50 [5]

Nc1nc2ncnc(NCc3ccc(Cl)c(Cl)c3)c2[nH]1 [Compound 101]
> 50 µmol/L: IC50 [1] | IC50 [2] | IC50 ([3]; K-562 cells) | IC50 (melanoma cell line G-361) | IC50 [4] | IC50 [5]
>100 µM: GI20 [6]

Nc1nc2ncnc(NCc3cccc(O)c3O)c2[nH]1 [Compound 102]
> 50 µmol/L: IC50 [1] | IC50 [2] | IC50 ([3]; K-562 cells) | IC50 (melanoma cell line G-361) | IC50 [4] | IC50 [5]
>100 µM: GI20 [6]

Nc1nc2ncnc(NCc3ccc(O)c(O)c3)c2[nH]1 [Compound 103]
> 50 µmol/L: IC50 [1] | IC50 [2] | IC50 ([3]; K-562 cells) | IC50 (melanoma cell line G-361) | IC50 [4] | IC50 [5]
>100 µM: GI20 [6]

COc1cccc(CNc2ncnc3nc(N)[nH]c23)c1O [Compound 104]
> 50 µmol/L: IC50 [1] | IC50 [2] | IC50 ([3]; K-562 cells) | IC50 (melanoma cell line G-361) | IC50 [4] | IC50 [5]
>100 µM: GI20 [6]

COc1ccc(CNc2ncnc3nc(N)[nH]c23)cc1O [Compound 105]
> 50 µmol/L: IC50 [1] | IC50 [2] | IC50 ([3]; K-562 cells) | IC50 (melanoma cell line G-361) | IC50 [4] | IC50 [5]
>100 µM: GI20 [6]

Nc1nc2ncnc(Nc3ccccc3O)c2[nH]1 [Compound 114]
> 50 µmol/L: IC50 [1] | IC50 [2] | IC50 ([3]; K-562 cells) | IC50 (melanoma cell line G-361) | IC50 [4] | IC50 [5]
>100 µM: GI20 [6]

Nc1nc2ncnc(Nc3cccc(O)c3)c2[nH]1 [Compound 115]
> 50 µmol/L: IC50 [1] | IC50 [2] | IC50 ([3]; K-562 cells) | IC50 (melanoma cell line G-361) | IC50 [4] | IC50 [5]
>100 µM: GI20 [6]

COc1nc2ncnc(NCC=C(C)C)c2[nH]1 [Compound 123, 8-Methoxy-6-(3-methylbut-2-en-1-ylamino)purine]
205 to 210 °C: melting point

CSc1nc2ncnc(NCC=C(C)C)c2[nH]1 [Compound 149, 6-(3-Methylbut-2-en-1-ylamino)-8-methylsulphanylpurine]
96 to 99 °C: melting point

N#Cc1nc2ncnc(NCc3ccccc3)c2[nH]1 [Compound 174, 6-Benzylamino-8-cyanopurine]
210 to 213 °C: melting point

CC(=CCNc1ncnc2nc(NCCCN)[nH]c12)CO [Compound 210]
>100 µM: GI20 [6]
> 50 µmol/L: IC50 [1] | IC50 [2] | IC50 ([3]; K-562 cells) | IC50 (melanoma cell line G-361) | IC50 [4] | IC50 [5]

CC(C)=CCNc1ncnc2nc(NCCCN)[nH]c12 [Compound 211]
> 50 µmol/L: IC50 [1] | IC50 [2] | IC50 ([3]; K-562 cells) | IC50 (melanoma cell line G-361) | IC50 [4] | IC50 [5]
>100 µM: GI20 [6]
